{
  "source": "patent US12414267B2",
  "about": "“Fluorinated aromatics and methods of using same” (3M INNOVATIVE PROPERTIES COMPANY, priority 2019, dated 2025)",
  "data": [
    {"experiment": "Log Kow (octanol/water partition coefficient) by HPLC, OECD Test Method 117", "assay_type": "physicochemical", "conditions": "OECD 117", "protocol": "Values of Log Kow (octanol/water partition coefficients) were determined by HPLC using the method described in Organization for Economic Cooperation and Development (OECD) Test Method 117, “Partition Coefficient (n-octanol/water), HPLC Method.”", "values": [
      {"compound": "Fc1c(F)c(F)c(OC(=C(C(F)(F)F)C(F)(F)F)C(F)(F)C(F)(F)F)c(F)c1F", "note": "[Example 1, 1,2,3,4,5-Pentafluoro-6-[3,3,3-trifluoro-1-(1,1,2,2,2-pentafluoroethyl)-2-(trifluoromethyl)prop-1-enoxy]benzene]", "Log Kow": 6.1},
      {"compound": "F/C(Oc1c(F)c(F)c(F)c(F)c1F)=C(/F)C(F)(F)F", "note": "[Example 2, (E)-1,2,3,4,5-Pentafluoro-6-((perfluoroprop-1-en-1-yl)oxy)benzene]", "Log Kow": 4.7},
      {"compound": "F/C(=C(/C(F)(F)F)C(F)(Oc1c(F)c(F)c(F)c(F)c1F)C(F)(F)C(F)(F)F)C(F)(C(F)(F)F)C(F)(F)F", "note": "(stereo not drawn) [Example 3, (E)-1,2,3,4,5-Pentafluoro-6-((1,1,1,2,2,3,5,6,7,7,7-undecafluoro-4,6-bis(trifluoromethyl)hept-4-en-3-yl)oxy)benzene]", "Log Kow": ">6.4"},
      {"compound": "F/C(=C(/C(F)(F)F)C(F)(Oc1ccccc1)C(F)(F)C(F)(F)F)C(F)(C(F)(F)F)C(F)(F)F", "note": "(stereo not drawn) [Example 4, (E)-((1,1,1,2,2,3,5,6,7,7,7-Undecafluoro-4,6-bis(trifluoromethyl)hept-4-en-3-yl)oxy)benzene+isomers]", "Log Kow": ">6.4"},
      {"compound": "FC(F)(F)C(=C(Oc1ccccc1)C(F)(F)C(F)(F)F)C(F)(F)F", "note": "[Example 5, ((1,1,1,4,4,5,5,5-Octafluoro-2-(trifluoromethyl)pent-2-en-3-yl)oxy)benzene]", "Log Kow": 5.5},
      {"compound": "FC(F)(F)C(=C(Oc1cccc(C(F)(F)F)c1)C(F)(F)C(F)(F)F)C(F)(F)F", "note": "[Example 7, 1-((1,1,1,4,4,5,5,5-Octafluoro-2-(trifluoromethyl)pent-2-en-3-yl)oxy)-3-(trifluoromethyl)benzene]", "Log Kow": 6.1}
    ]}
  ]
}
